Data from US11254686B1 (Corvus Pharmaceuticals, Inc., priority 2017, dated 2022).

Columns and labels:
Assay type in all cases: biochemical
adenosine A3 receptor = adenosine A3 receptor (Homo sapiens (Human), UniProt P0DMS8); experiment: Adenosine receptor activity assay (Table 1), A3 cAMP
Experimental: (§1) Table 1. Compounds (e.g., Adenosine Receptor modulators) and activity assay results. The legend is as follows: A=<10 nM; B=10-50 nM; C=50-100 nM; D=100-500; and E=>500 nM. The ratio corresponds to the A2A activity to the A2B activity; or A2A/A2B.

adenosine A2A receptor = adenosine A2A receptor (Homo sapiens (Human), UniProt P29274); experiment: Adenosine receptor activity assay (Table 1), A2A activity; conditions: read-out: Ave A2A cAMP IC50
Chain of adenosine A2A receptor (P29274 whole entry): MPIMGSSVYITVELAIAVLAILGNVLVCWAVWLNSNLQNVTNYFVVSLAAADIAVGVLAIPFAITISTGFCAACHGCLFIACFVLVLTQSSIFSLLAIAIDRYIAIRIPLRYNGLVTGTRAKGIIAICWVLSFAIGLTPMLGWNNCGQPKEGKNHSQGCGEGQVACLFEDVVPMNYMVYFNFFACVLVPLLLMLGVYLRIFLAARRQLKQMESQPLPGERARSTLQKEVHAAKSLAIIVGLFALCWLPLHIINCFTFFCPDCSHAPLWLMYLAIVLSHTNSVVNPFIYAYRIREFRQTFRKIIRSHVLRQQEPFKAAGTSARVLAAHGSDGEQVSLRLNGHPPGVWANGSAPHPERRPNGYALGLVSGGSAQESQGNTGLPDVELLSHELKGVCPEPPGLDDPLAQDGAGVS

adenosine A2B receptor = adenosine A2B receptor (Homo sapiens (Human), UniProt P29275); experiment: Adenosine receptor activity assay (Table 1), A2B activity; conditions: for Ratio: A2A activity to the A2B activity, A2A/A2B; for IC50: read-out: Ave A2B cAMP IC50
Chain of adenosine A2B receptor (P29275 whole entry): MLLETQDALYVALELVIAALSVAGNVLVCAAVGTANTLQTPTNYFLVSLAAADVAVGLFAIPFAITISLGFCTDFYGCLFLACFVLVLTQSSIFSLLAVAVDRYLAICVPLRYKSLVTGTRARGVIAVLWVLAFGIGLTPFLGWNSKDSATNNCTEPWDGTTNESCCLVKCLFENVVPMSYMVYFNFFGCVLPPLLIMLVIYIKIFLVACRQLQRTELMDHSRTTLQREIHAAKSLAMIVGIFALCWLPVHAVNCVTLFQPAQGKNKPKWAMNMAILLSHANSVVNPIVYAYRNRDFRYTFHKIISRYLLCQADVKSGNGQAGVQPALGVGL

adenosine A1 receptor = adenosine A1 receptor (Homo sapiens (Human), UniProt P30542); experiment: Adenosine receptor activity assay (Table 1), A1 cAMP
Chain of adenosine A1 receptor (P30542 whole entry): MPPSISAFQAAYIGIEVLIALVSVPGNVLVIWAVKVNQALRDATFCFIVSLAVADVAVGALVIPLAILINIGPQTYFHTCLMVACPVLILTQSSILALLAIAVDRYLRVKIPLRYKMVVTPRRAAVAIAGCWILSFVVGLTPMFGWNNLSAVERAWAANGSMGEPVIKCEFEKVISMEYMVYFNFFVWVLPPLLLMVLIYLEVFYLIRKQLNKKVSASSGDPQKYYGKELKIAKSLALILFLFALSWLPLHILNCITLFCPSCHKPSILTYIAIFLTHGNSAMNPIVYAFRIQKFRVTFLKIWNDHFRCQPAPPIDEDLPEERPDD
Experimental: as §1

Chain of adenosine A3 receptor (P0DMS8 whole entry): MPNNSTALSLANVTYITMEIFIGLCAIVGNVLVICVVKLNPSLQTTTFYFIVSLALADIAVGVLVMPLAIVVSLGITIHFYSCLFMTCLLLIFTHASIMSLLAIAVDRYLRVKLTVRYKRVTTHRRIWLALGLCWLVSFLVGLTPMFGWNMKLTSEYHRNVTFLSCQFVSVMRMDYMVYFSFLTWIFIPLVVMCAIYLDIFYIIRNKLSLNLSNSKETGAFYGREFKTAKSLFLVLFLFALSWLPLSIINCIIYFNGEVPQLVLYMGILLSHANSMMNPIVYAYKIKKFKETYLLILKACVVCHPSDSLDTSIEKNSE

SMILES | IC50 (adenosine A3 receptor) [nM] | IC50 (adenosine A2A receptor) [nM] | Ratio (adenosine A2B receptor) | IC50 (adenosine A2B receptor) [nM] | IC50 (adenosine A1 receptor) [nM]
CC(C)OC(=O)NC1CN(C(=O)c2nc(N[C@@H](C)c3cncc(F)c3)nc3ccsc23)C1 [Example Z510, Isopropyl (S)-(1-(2-((1-(5-fluoropyridin-3-yl)ethyl)amino)thieno[3,2-d]pyrimidine-4-carbonyl)azetidin-3-yl)carbamate] | > 500 | 10 to 50 | 2.03 | 10 to 50 | > 500
Cc1csc2c(C(=O)N3CCCC3)nc(N[C@@H](C)c3ccccn3)nc12 [Example Z459, (S)-(7-methyl-2-((1-(pyridin-2-yl)ethyl)amino)thieno[3,2-d]pyrimidin-4-yl)(pyrrolidin-1-yl)methanone] | > 500 | 10 to 50 | 2.40 | 10 to 50 | > 500
Cc1cc2nc(N[C@@H](C)c3ccccn3)nc(C(=O)N3CC(C(=O)OC(C)(C)C)C3)c2s1 [Example Z552, tert-Butyl (S)-1-(6-methyl-2-((1-(pyridin-2-yl)ethyl)amino)thieno[3,2-d]pyrimidine-4-carbonyl)azetidine-3-carboxylate] | 100 to 500 | 10 to 50 | 2.32 | 10 to 50 | > 500
C[C@H](Nc1nc(C(=O)N2CC(C(=O)NOC(C)(C)C)C2)c2sccc2n1)c1cncc(F)c1 [Example Z579, (S)—N-(tert-Butoxy)-1-(2-((1-(5-fluoropyridin-3-yl)ethyl)amino)thieno[3,2-d]pyrimidine-4-carbonyl)azetidine-3-carboxamide] | > 500 | 50 to 100 | 1.29 | 50 to 100 | > 500
C[C@H](Nc1nc(C(=O)N2CC(NC(=O)CC(C)(C)C)C2)c2sccc2n1)c1cncc(F)c1 [Example Z557, (S)—N-(1-(2-((1-(5-Fluoropyridin-3-yl)ethyl)amino)thieno[3,2-d]pyrimidine-4-carbonyl)azetidin-3-yl)-3,3-dimethylbutanamide] | > 500 | 10 to 50 | 1.92 | 10 to 50 | > 500
Cc1cc2nc(N[C@@H](C)c3cncc(F)c3)nc(C(=O)N3CC(N(C)C)C3)c2s1 [Example Z481, (S)-(3-(Dimethylamino)azetidin-1-yl)(2-((1-(5-fluoropyridin-3-yl)ethyl)amino)-6-methylthieno[3,2-d]pyrimidin-4-yl)methanone] | > 500 | > 500 | 111.93 | 10 to 50 | > 500
Cc1cc2nc(N[C@@H](C)c3cncc(F)c3)nc(C(=O)N3CC[C@H](CN)C3)c2s1 [Example Z554, ((R)-3-(Aminomethyl)pyrrolidin-1-yl)(2-(((S)-1-(5-fluoropyridin-3-yl)ethyl)amino)-6-methylthieno[3,2-d]pyrimidin-4-yl)methanone] | > 500 | > 500 | 547.59 | < 10 | > 500
Cc1cc2nc(N[C@@H](C)c3cncc(F)c3)nc(C(=O)N3CC(NC(=O)C(C)C)C3)c2s1 [Example Z588, (S)—N-(1-(2-((1-(5-Fluoropyridin-3-yl)ethyl)amino)-6-methylthieno[3,2-d]pyrimidine-4-carbonyl)azetidin-3-yl)isobutyramide] | 100 to 500 | < 10 | 0.26 | 10 to 50 | > 500
COc1ccc(CNC(=O)c2nc(N[C@@H](C)c3ccccn3)nc3cc(C)sc23)cc1 [Example Z477, (S)—N-(4-Methoxybenzyl)-6-methyl-2-((1-(pyridin-2-yl)ethyl)amino)thieno[3,2-d]pyrimidine-4-carboxamide] | 50 to 100 | 100 to 500 | 9.73 | 10 to 50 | 50 to 100
